Source: patent US20090012052A1, “METHOD FOR TREATING ER+ BREAST CANCER” (Ore Pharmaceuticals Inc., priority 2006, published 2009)
“Also recorded” adds a separate entry of the source.

What was measured:
PR = settings: T47D (ER+, PR+) cells; cited from earlier work
T47D cells [1] = settings: cited from earlier work
ER = settings: T47D (ER+, PR+) cells; cited from earlier work
[2] = test system: T47D (human ER+ breast cancer cell line) xenografts; test: Growth of ER+ breast cancer cell line (T47D) xenografts in mice; type: in vivo; settings: NODscid mice with estrogen pellet; p.o. once daily 3-5 weeks; candesartan cilexetil 10/30/100, irbesartan 30/100/300, tamoxifen 0.1/0.3/1.0 mg/kg
Experimental: Female NODscid mice of age 5-6 weeks received a subcutaneous estrogen pellet implant (1.7 mg). Twenty four hours after estrogen pellet implantation, the mice received tumor implantation by subcutaneous injection of T47D cells to the flank (approximately 2.5×10^6 cells/mouse). The mice were ear-notched for identification and housed 4 animals per cage. The tumor implantation site was palpated up to 3 times weekly to monitor tumor growth. One hundred animals in which tumor implantation was successful (7-12 days after injection) were randomized to ten treatment groups, 10 animals per group:
Tumors were measured 3 times weekly using digital calipers. Body weight was measured twice weekly. Clinical observations were conducted weekly. At the conclusion of the study or when mice attained a maximum tumor burden of about 3.0 cm^3 or about 10% of body weight, the mice were sacrificed, tumors were harvested and a terminal blood sample was collected.

HCC1143 cells = test: Cell proliferation assay (RT-CES impedance), ER- cell line HCC1143; type: cell-based, human; settings: for Effect on cell proliferation: HCC1143
Experimental: (§1) Unless otherwise indicated, cell proliferation assays described in Examples 2-5 were performed using a Real-Time Cell Electronic Sensing (RT-CES™ 96×) instrument from ACEA Bioscience (San Diego, Calif.). This instrument utilizes an electronic readout (impedance) to non-invasively quantify adherent cell proliferation and viability in real time.
(§2) Cells were seeded in 96-well microtiter plates containing microelectronic sensor arrays (96E plates; ACEA). Cells were maintained in RPMI 1640 (Invitrogen, Carlsbad, Calif.) supplemented with 10% fetal bovine serum (FBS) (Hyclone, Logan, Utah) and were cultured at 37° C. in a humidified atmosphere containing 5% CO2. For proliferation assays, cells were seeded (20,000 cells/well), allowed to attach and grown overnight in standard growth medium. Cells were then serum-starved for 8 hours prior to the proliferation assay in presence or absence of test compound(s). The proliferation response was continuously monitored by measuring the impedance change in each well for the indicated number of hours. Data are expressed as cell index (CI) change relative to time in culture, reflecting measured changes in electrical impedance. Each value shown is an average of 6 wells. Where shown, statistical analysis was performed by calculation of standard deviation and P values were generated by a Student's two-tailed t-test.
(§3) T47D (American Type Culture Collection, Manassas, Va. (ATCC) cat. HTB-133) is an ER+ cell line derived from human mammary gland ductal carcinoma. Other ER+ cell lines used in studies reported herein include ZR-75 and HCC70. HCC1143 (ATCC cat. CRL-2321) is an ER− cell line also derived from human mammary gland ductal carcinoma.
(§4) Following the 8 hour starvation phase, either Ang II (Sigma-Aldrich), 500 nM, or vehicle control was added to the cell culture. […] Ang II also stimulated proliferation of ER+ cell lines HCC70, by approximately 30%, and ZR-75, by approximately 35%, relative to vehicle control (data not shown).
(§5) A cell proliferation assay procedure was followed as described in Example 2. Following the 8 hour starvation phase, either Ang II (Sigma-Aldrich), 500 nM, with or without the AT1 receptor antagonist telmisartan, 1.25 μM or 5 μM, or vehicle control was added to the cell culture.
(§6) A cell proliferation assay procedure was followed as described in Example 2. Following the 8 hour starvation phase, either Ang II (Sigma-Aldrich), 500 nM, with or without the AT1 receptor antagonist candesartan, 5 μM, or vehicle control was added to the cell culture.
(§7) A cell proliferation assay procedure was followed as described in Example 2. Following the 8 hour starvation phase, either Ang II (Sigma-Aldrich), 500 nM, with or without the AT1 receptor antagonist irbesartan, 5 μM, or vehicle control was added to the cell culture.

T47D cells [3] = test: Cell proliferation assay (RT-CES impedance), ER+ cell line T47D; type: cell-based, human; settings: for Effect on Ang II-induced growth / Effect on Ang II-induced cell proliferation: T47D
Experimental: as §1, §2, §3, §4, §5, §6, §7
A cell proliferation assay was conducted by a procedure substantially as described in Example 2, using the ER+ human breast cancer cell line T47D. Following an eight-hour serum starvation phase, test substance was added to the cell culture to provide each of the following treatments: […]

[4] = test system: breast cancer epithelial cell line MCF-7; settings: cited from earlier work
[5] = test system: cells cultured from invasive ductal carcinomas; settings: cited from earlier work
[6] = administered for 5 years; women having risk factors; cited from earlier work
HCC1395 cells = test: Cell proliferation assay (RT-CES impedance), cell line HCC1395; type: cell-based, human
Experimental: as §1
as §2, with “t-test. […]” for “t-test.”

HCC38 cells = test: Cell proliferation assay (RT-CES impedance), cell line HCC38; type: cell-based, human
Experimental: as §1
as §2, with “t-test. […]” for “t-test.”

HCC1937 cells = test: Cell proliferation assay (RT-CES impedance), cell line HCC1937; type: cell-based, human
Experimental: as §1
as §2, with “t-test. […]” for “t-test.”

T47D cell line = settings: cited from earlier work
HCC1954 cells = test: Cell proliferation assay (RT-CES impedance), cell line HCC1954; type: cell-based, human
Experimental: as §1
as §2, with “t-test. […]” for “t-test.”

HCC70 cells = test: Cell proliferation assay (RT-CES impedance), ER+ cell line HCC70; type: cell-based, human
Experimental: as §1
as §2, with “t-test. […]” for “t-test.”

ZR-75 cells = test: Cell proliferation assay (RT-CES impedance), ER+ cell line ZR-75; type: cell-based, human
Experimental: as §1
as §2, with “t-test. […]” for “t-test.”

[7] = Ang II 500 nM with AT1 receptor antagonist 5 μM, data not shown
[8] = Ang II 500 nM with AT1 receptor antagonist 5 μM
[9] = Ang II 500 nM with telmisartan 1.25 μM or 5 μM

Compound: C[C@H](CS)C(=O)N1CCC[C@H]1C(=O)O [Captopril]
- PR protein concentration (PR): increased
- [3H]thymidine incorporation (an index of cell proliferation) (T47D cells [1]): inhibited
- ER protein concentration (ER): reduced

Compound: CCOc1nc2cccc(C(=O)OC(C)OC(=O)OC3CCCCC3)c2n1Cc1ccc(-c2ccccc2-c2nnn[nH]2)cc1 (centres unmarked) [candesartan cilexetil]
- Growth in tumor volume [2]: reduced in a dose-dependent fashion

Compound: CCOc1nc2cccc(C(=O)O)c2n1Cc1ccc(-c2ccccc2-c2nnn[nH]2)cc1 [candesartan, 2-ethoxy-1-[4-[2-(1H-tetrazol-5-yl)phenyl]benzyl]-7-benzimidazole-carboxylic acid]
- Effect on cell proliferation (HCC1143 cells; [7]): No effects
- Effect on Ang II-induced growth (T47D cells [3]; [8]): significantly inhibited

Compound: CCCCC1=NC2(CCCC2)C(=O)N1Cc1ccc(-c2ccccc2-c2nnn[nH]2)cc1 [irbesartan, 2-n-butyl-4-spirocyclopentane-1-[(2′-(tetrazol-5-yl)bipheny-4-yl)methyl]-2-imidazolin-5-one]
- Growth in tumor volume [2]: the lowest dose tested (30 mg/kg) appeared to give the greatest effect
- Effect on cell proliferation (HCC1143 cells; [7]): No effects
- Effect on Ang II-induced growth (T47D cells [3]; [8]): significantly inhibited
- Effect on Ang II-induced cell proliferation (T47D cells [3]; irbesartan 5 μM + Ang II 500 nM): reversed the Ang II effect

Compound: NCCCC[C@H](N[C@@H](CCc1ccccc1)C(=O)O)C(=O)N1CCC[C@H]1C(=O)O [lisinopril]
- PR protein concentration (PR): No such effects
- [3H]thymidine incorporation (an index of cell proliferation) (T47D cells [1]): No such effects
- ER protein concentration (ER): No such effects

Compound: CCCCc1nc(Cl)c(CO)n1Cc1ccc(-c2ccccc2-c2nnn[nH]2)cc1 [losartan, 2-n-butyl-4-chloro-5-hydroxymethyl-1-[[2′-(1H-tetrazol-5-yl)biphenyl-4-yl]methyl]imidazole]
- Effect on Ang II proliferative effect [4]: blocked
- Effect on Ang II-stimulated proliferation [5]: blocked

Compound: CC/C(=C(\c1ccccc1)c1ccc(OCCN(C)C)cc1)c1ccccc1 [tamoxifen]
- Growth in tumor volume [2]: reduced in a dose-dependent fashion
- Reduction of incidence of invasive breast cancer [6]: ~50%
- Effect on Ang II-induced cell proliferation (T47D cells [3]; tamoxifen 7.5 μM + Ang II 500 nM): reduced cell proliferation to a level lower than that of vehicle control

Compound: CCCc1nc2c(C)cc(-c3nc4ccccc4n3C)cc2n1Cc1ccc(-c2ccccc2C(=O)O)cc1 [telmisartan, 4′-[[4-methyl-6-(1-methyl-2-benzimidazolyl)-2-propyl-1-benzimidazol-yl]methyl]-2-biphenylcarboxylic acid]
- Effect on cell proliferation (HCC1143 cells; [9]): No effects
- Effect on Ang II-induced growth (T47D cells [3]; [9]): significantly inhibited

Compound: Ang II: peptide angiotensin II, a major regulator of blood pressure and cardiovascular homeostasis (Sigma-Aldrich) (DRVYIHPF; Angiotensin-2; UniProt P01019 25-32, looked up)
- Ang II proliferation response (HCC1395 cells): negative
- Ang II proliferation response (HCC38 cells): negative
- Ang II proliferation response (HCC1937 cells): negative
- Stimulation of cell growth by Ang II (T47D cell line): significant stimulation of cell growth
- Proliferative effect of Ang II [4]: dose-dependent proliferative effect
- Ang II proliferation response (HCC1954 cells): negative
- Stimulation of proliferation relative to vehicle control (HCC70 cells; HCC70 (ER+), Ang II 500 nM, data not shown): approximately 30%
- Ang II proliferation response (HCC70 cells; cell line HCC70): positive
- Effect of Ang II on cell growth/proliferation (HCC1143 cells; HCC1143 (ER-), Ang II 500 nM vs vehicle control): No effects
- Ang II proliferation response (HCC1143 cells; cell line HCC1143): negative
- Stimulation of proliferation relative to vehicle control (ZR-75 cells; ZR-75 (ER+), Ang II 500 nM, data not shown): approximately 35%
- Ang II proliferation response (ZR-75 cells; cell line ZR-75): positive
- Effect of Ang II on cell growth/proliferation (T47D cells [3]; T47D (ER+), Ang II 500 nM vs vehicle control, after 8 h serum starvation): significantly stimulated growth; also recorded: substantial increase in cell proliferation
- Ang II proliferation response (T47D cells [3]; cell line T47D): positive
- Proliferation stimulated by Ang II ([5]; ER and PR positive): stimulated in a dose-dependent manner
